# Test results reported in patent US20220162191A1, “SMALL MOLECULE MODULATORS OF IL-17” (LEO PHARMA A/S, priority 2019, published 2022).
# pEC50: −log10 of the molar value. Structures can show the parent of a compound that is named as a salt.
# Target: T1, human IL-17AA (Homo sapiens, UniProt Q16552)
# T1 construct: host or cells: HEK (human embryonic kidney) cells
# T1 sequence (Q16552 24-155) 1: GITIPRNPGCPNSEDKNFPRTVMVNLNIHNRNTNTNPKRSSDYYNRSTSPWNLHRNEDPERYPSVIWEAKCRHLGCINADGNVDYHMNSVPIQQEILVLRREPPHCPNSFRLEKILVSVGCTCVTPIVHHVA
# T1 sequence (Q16552 24-155) 2: T1 sequence (Q16552 24-155) 1
# Assay: IL-8 release assay in human epithelial keratinocytes adult (HEKa)
# Assay type: cell-based
# Settings: 3 ng/ml human IL-17AA + 10 ng/ml human TNFalpha, 68-72 h, IL-8 by HTRF, read-out: Rel EC50 L-8 release assay
# Method in brief: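 Adult human keratinocytes in Epilife with HKGS minus hydrocortisone, treated with compound then stimulated with final 3 ng/ml HEK-derived human IL-17AA plus 10 ng/ml TNF-alpha for 68–72 h at 37 °C; TNF-alpha alone defines 100% inhibition. Secreted IL-8 by HTRF; relative IC50 and Emax from four-parameter fits.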
row,Structure (SMILES),pEC50
1,"CN1CCN(c2cc(-c3ccc(Cl)c(C[C@H](NC(=O)c4ccnn4C)C(=O)Nc4ccc(-c5cncn5C)cc4)c3)ccn2)CC1 [Example 206, N-[(1S)-1-[[2-chloro-5-[2-(4-methylpiperazin-1-yl)-4-pyridyl]phenyl]methyl]-2-[4-(3-methylimidazol-4-yl)anilino]-2-oxo-ethyl]-2-methyl-pyrazole-3-carboxamide]",6.00 to 7.00
2,"C[C@@H]1CNCCN1c1cc(-c2ccc(Cl)c(C[C@H](NC(=O)c3ccnn3C)C(=O)Nc3ccc(-c4cncn4C)cc3)c2)ccn1 [Example 207, N-[(1S)-1-[[2-chloro-5-[2-[(2R)-2-methylpiperazin-1-yl]-4-pyridyl]phenyl]methyl]-2-[4-(3-methylimidazol-4-yl)anilino]-2-oxo-ethyl]-2-methyl-pyrazole-3-carboxamide]",> 7.00
3,"C[C@H]1CNCCN1c1cc(-c2ccc(Cl)c(C[C@H](NC(=O)c3ccnn3C)C(=O)Nc3ccc(-c4cncn4C)cc3)c2)ccn1 [Example 208, N-[(1S)-1-[[2-chloro-5-[2-[(2S)-2-methylpiperazin-1-yl]-4-pyridyl]phenyl]methyl]-2-[4-(3-methylimidazol-4-yl)anilino]-2-oxo-ethyl]-2-methyl-pyrazole-3-carboxamide]",6.00 to 7.00
4,"C[C@H]1CN(c2cc(-c3ccc(Cl)c(C[C@H](NC(=O)c4ccnn4C)C(=O)Nc4ccc(-c5cncn5C)cc4)c3)ccn2)CCN1 [Example 209, N-[(1S)-1-[[2-chloro-5-[2-[(3S)-3-methylpiperazin-1-yl]-4-pyridyl]phenyl]methyl]-2-[4-(3-methylimidazol-4-yl)anilino]-2-oxo-ethyl]-2-methyl-pyrazole-3-carboxamide]",6.00 to 7.00
5,"C[C@@H]1CN(c2cc(-c3ccc(Cl)c(C[C@H](NC(=O)c4ccnn4C)C(=O)Nc4ccc(-c5cncn5C)cc4)c3)ccn2)CCN1 [Example 210, N-[(1S)-1-[[2-chloro-5-[2-[(3R)-3-methylpiperazin-1-yl]-4-pyridyl]phenyl]methyl]-2-[4-(3-methylimidazol-4-yl)anilino]-2-oxo-ethyl]-2-methyl-pyrazole-3-carboxamide]",6.00 to 7.00
6,"Cc1ncn(C)c1-c1ccc(NC(=O)[C@H](Cc2cc(-c3ccnc(N4CCN(C)CC4)c3)ccc2Cl)NC(=O)OC2CC2)cc1 [Example 211, cyclopropyl N-[(1S)-1-[[2-chloro-5-[2-(4-methylpiperazin-1-yl)-4-pyridyl]phenyl]methyl]-2-[4-(3,5-dimethylimidazol-4-yl)anilino]-2-oxo-ethyl]carbamate]",6.00 to 7.00
7,"CC(C)Cn1cc(-c2ccc(Cl)c(C[C@H](NC(=O)c3ccnn3C)C(=O)Nc3ccc(-c4cncn4C)cc3)c2)nn1 [Example 212, N-[(1S)-1-[[2-chloro-5-(1-isobutyltriazol-4-yl)phenyl]methyl]-2-[4-(3-methylimidazol-4-yl)anilino]-2-oxo-ethyl]-2-methyl-pyrazole-3-carboxamide]",6.00 to 7.00
8,"Cc1ncn(C)c1-c1ccc(NC(=O)[C@H](Cc2cc(-c3ccnc(N4CCN(C)CC4)c3)ccc2Cl)NC(=O)c2ccnn2C)cc1 [Example 213, N-[(1S)-1-[[2-chloro-5-[2-(4-methylpiperazin-1-yl)-4-pyridyl]phenyl]methyl]-2-[4-(3,5-dimethylimidazol-4-yl)anilino]-2-oxo-ethyl]-2-methyl-pyrazole-3-carboxamide]",6.00 to 7.00
9,"CC(C)Cn1cc(-c2ccc(Cl)c(C[C@H](NC(=O)OC3CC3)C(=O)Nc3ccc(-c4cncn4C)cc3)c2)nn1 [Example 214, cyclopropyl N-[(1S)-1-[[2-chloro-5-(1-isobutyltriazol-4-yl)phenyl]methyl]-2-[4-(3-methylimidazol-4-yl)anilino]-2-oxo-ethyl]carbamate]",< 6.00
10,"Cn1cncc1-c1ccc(NC(=O)[C@H](Cc2cc(-c3cccc([C@H]4COCCN4)c3)ccc2Cl)NC(=O)c2ccnn2C)cc1 [Example 215, N-[(1S)-1-[[2-chloro-5-[3-[(3S)-morpholin-3-yl]phenyl]phenyl]methyl]-2-[4-(3-methylimidazol-4-yl)anilino]-2-oxo-ethyl]-2-methyl-pyrazole-3-carboxamide]",6.00 to 7.00
11,"Cn1cncc1-c1ccc(NC(=O)[C@H](Cc2cc(-c3cccc([C@@H]4COCCN4)c3)ccc2Cl)NC(=O)c2ccnn2C)cc1 [Example 216, N-[(1S)-1-[[2-chloro-5-[3-[(3R)-morpholin-3-yl]phenyl]phenyl]methyl]-2-[4-(3-methylimidazol-4-yl)anilino]-2-oxo-ethyl]-2-methyl-pyrazole-3-carboxamide]",6.00 to 7.00
12,"CN1CCOC[C@@H]1c1cccc(-c2ccc(Cl)c(C[C@H](NC(=O)c3ccnn3C)C(=O)Nc3ccc(-c4cncn4C)cc3)c2)c1 [Example 217, N-[(1S)-1-[[2-chloro-5-[3-[(3S)-4-methylmorpholin-3-yl]phenyl]phenyl]methyl]-2-[4-(3-methylimidazol-4-yl)anilino]-2-oxo-ethyl]-2-methyl-pyrazole-3-carboxamide]",6.00 to 7.00
13,"CN1CCOC[C@H]1c1cccc(-c2ccc(Cl)c(C[C@H](NC(=O)c3ccnn3C)C(=O)Nc3ccc(-c4cncn4C)cc3)c2)c1 [Example 218, N-[(1S)-1-[[2-chloro-5-[3-[(3R)-4-methylmorpholin-3-yl]phenyl]phenyl]methyl]-2-[4-(3-methylimidazol-4-yl)anilino]-2-oxo-ethyl]-2-methyl-pyrazole-3-carboxamide]",6.00 to 7.00
14,"Cn1cncc1-c1ccc(NC(=O)[C@H](Cc2cc(-c3cccc(C4CNCCO4)c3)ccc2Cl)NC(=O)c2ccnn2C)cc1 (stereo partly drawn) [Example 219, N-[(1S)-1-[[2-chloro-5-(3-morpholin-2-ylphenyl)phenyl]methyl]-2-[4-(3-methylimidazol-4-yl)anilino]-2-oxo-ethyl]-2-methyl-pyrazole-3-carboxamide hydrochloride]",6.00 to 7.00
15,"Cn1cncc1-c1ccc(NC(=O)[C@H](Cc2cc(-c3cccc([C@H]4CNCCO4)c3)ccc2Cl)NC(=O)c2ccnn2C)cc1 [Example 220, N-[(1S)-1-[[2-chloro-5-[3-[(2S)-morpholin-2-yl]phenyl]phenyl]methyl]-2-[4-(3-methylimidazol-4-yl)anilino]-2-oxo-ethyl]-2-methyl-pyrazole-3-carboxamide]",6.00 to 7.00
16,"Cn1cncc1-c1ccc(NC(=O)[C@H](Cc2cc(-c3cccc([C@@H]4CNCCO4)c3)ccc2Cl)NC(=O)c2ccnn2C)cc1 [Example 221, N-[(1S)-1-[[2-chloro-5-[3-[(2R)-morpholin-2-yl]phenyl]phenyl]methyl]-2-[4-(3-methylimidazol-4-yl)anilino]-2-oxo-ethyl]-2-methyl-pyrazole-3-carboxamide]",6.00 to 7.00
17,"Cc1n[nH]c(C)c1-c1ccc(NC(=O)[C@H](Cc2cc(-c3ccnc(N4C[C@H]5C[C@@H]4CO5)c3)ccc2Cl)NC(=O)C2(F)CC2)cc1 [Example 222, N-[(1S)-1-[[2-chloro-5-[2-[(1R,4R)-2-oxa-5-azabicyclo[2.2.1]heptan-5-yl]-4-pyridyl]phenyl]methyl]-2-[4-(3,5-dimethyl-1H-pyrazol-4-yl)anilino]-2-oxo-ethyl]-1-fluoro-cyclopropanecarboxamide]",> 7.00
18,"Cc1n[nH]c(C)c1-c1ccc(NC(=O)[C@H](Cc2cc(-c3ccnc(N4C[C@@H]5C[C@H]4CN5)c3)ccc2Cl)NC(=O)C2(F)CC2)cc1 [Example 223, N-[(1S)-1-[[2-chloro-5-[2-[(1S,4S)-2,5-diazabicyclo[2.2.1]heptan-2-yl]-4-pyridyl]phenyl]methyl]-2-[4-(3,5-dimethyl-1H-pyrazol-4-yl)anilino]-2-oxo-ethyl]-1-fluoro-cyclopropanecarboxamide]",> 7.00
